Patent US8288429B2, “2-aza-bicyclo[3.3.0]octane derivatives” (Actelion Pharmaceuticals Ltd., priority 2007, dated 2012)
Like-named read-outs stand apart in the source and are kept apart here.

Assays:
[1] = biological target: T1, human orexin-2 receptor (Homo sapiens, UniProt O43614); assay: Intracellular calcium measurement (FLIPR), orexin-A induced response in CHO cells expressing the human orexin-2 receptor; assay type: cell-based; conditions: 3 nM orexin-A as agonist
T1 construct: expressed in transfected cells; host or cells: CHO cells (selected with G418)
T1 sequence (O43614 1-444): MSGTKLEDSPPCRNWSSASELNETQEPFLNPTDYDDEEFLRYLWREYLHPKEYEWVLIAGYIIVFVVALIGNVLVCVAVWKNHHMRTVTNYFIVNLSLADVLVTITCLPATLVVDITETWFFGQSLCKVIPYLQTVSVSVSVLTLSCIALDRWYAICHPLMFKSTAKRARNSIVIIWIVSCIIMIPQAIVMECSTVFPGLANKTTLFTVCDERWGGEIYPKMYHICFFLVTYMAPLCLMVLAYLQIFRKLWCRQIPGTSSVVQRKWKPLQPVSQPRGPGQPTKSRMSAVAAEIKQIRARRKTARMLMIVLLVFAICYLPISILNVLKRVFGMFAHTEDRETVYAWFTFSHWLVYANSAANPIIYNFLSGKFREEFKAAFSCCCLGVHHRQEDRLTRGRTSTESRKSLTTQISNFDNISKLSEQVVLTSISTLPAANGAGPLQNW
Experimental: (§1) The orexin receptor antagonistic activity of the compounds of formula (I) is determined in accordance with the following experimental method.
(§2) Intracellular Calcium Measurements:
(§3) Chinese hamster ovary (CHO) cells expressing the human orexin-1 receptor and the human orexin-2 receptor, respectively, are grown in culture medium (Ham F-12 with L-Glutamine) containing 300 μg/ml G418, 100 U/ml penicillin, 100 μg/ml streptomycin and 10% heat inactivated fetal calf serum (FCS). The cells are seeded at 20,000 cells/well into 384-well black clear bottom sterile plates (Greiner). The seeded plates are incubated overnight at 37° C. in 5% CO2.
(§4) Human orexin-A as an agonist is prepared as 1 mM stock solution in MeOH: water (1:1), diluted in HBSS containing 0.1% bovine serum albumin (BSA), NaHCO3: 0.375 g/l and 20 mM HEPES for use in the assay at a final concentration of 3 nM.
(§5) Antagonists are prepared as 10 mM stock solution in DMSO, then diluted in 384-well plates using DMSO followed by a transfer of the dilutions into in HBSS containing 0.1% bovine serum albumin (BSA), NaHCO3: 0.375 g/l and 20 mM HEPES. On the day of the assay, 50 μl of staining buffer (HBSS containing 1% FCS, 20 mM HEPES, NaHCO3: 0.375 g/l, 5 mM probenecid (Sigma) and 3 μM of the fluorescent calcium indicator fluo-4 AM (1 mM stock solution in DMSO, containing 10% pluronic) is added to each well. The 384-well cell-plates are incubated for 50 min at 37° C. in 5% CO2 followed by equilibration at rt for 30-120 min before measurement.
(§6) Within the Fluorescent Imaging Plate Reader (FLIPR2 or FLIPR Tetra, Molecular Devices), antagonists are added to the plate in a volume of 10 μl/well, incubated for 10 min and finally 10 μl/well of agonist is added. Fluorescence is measured for each well at 1 second intervals, and the height of each fluorescence peak is compared to the height of the fluorescence peak induced by 3 nM orexin-A with vehicle in place of antagonist. For each antagonist, the IC50 value (the concentration of compound needed to inhibit 50% of the agonistic response) is determined. The calculated IC50 values of the compounds may fluctuate depending on the daily cellular assay performance. Fluctuations of this kind are known to those skilled in the art.

[2] = biological target: T2, human orexin-1 receptor (Homo sapiens, UniProt O43613); assay: Intracellular calcium measurement (FLIPR), orexin-A induced response in CHO cells expressing the human orexin-1 receptor; assay type: cell-based; conditions: 3 nM orexin-A as agonist
T2 construct: expressed in transfected cells; host or cells: CHO cells (selected with G418)
T2 sequence (O43613 1-425): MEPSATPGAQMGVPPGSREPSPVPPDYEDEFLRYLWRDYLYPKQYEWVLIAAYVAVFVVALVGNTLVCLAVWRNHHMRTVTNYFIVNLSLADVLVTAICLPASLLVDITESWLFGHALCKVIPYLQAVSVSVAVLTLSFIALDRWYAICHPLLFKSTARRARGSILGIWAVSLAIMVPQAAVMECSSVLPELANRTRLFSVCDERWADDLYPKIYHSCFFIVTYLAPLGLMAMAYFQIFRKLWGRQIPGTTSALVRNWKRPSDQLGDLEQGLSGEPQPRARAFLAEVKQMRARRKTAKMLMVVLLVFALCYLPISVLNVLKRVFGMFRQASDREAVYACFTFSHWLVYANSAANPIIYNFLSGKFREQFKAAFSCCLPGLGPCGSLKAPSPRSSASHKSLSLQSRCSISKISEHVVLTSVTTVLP
Experimental: as §1, §2, §3, §4, §5, §6

[3] = measured using FLIPR2, read-out: OX2 IC50
[4] = measured using FLIPR2, read-out: OX1 IC50
[5] = measured using FLIPR Tetra (footnote 1), read-out: OX2 IC50
[6] = measured using FLIPR Tetra (footnote 1), read-out: OX1 IC50

| SMILES | IC50 [1, 3] [nM] | IC50 [2, 4] [nM] | IC50 [1, 5] [nM] | IC50 [2, 6] [nM] |
| --- | --- | --- | --- | --- |
| Cc1ccc(-c2sc(C)nc2C(=O)N2[C@H](CNC(=O)c3c(C)nc4sccn34)C[C@@H]3CCC[C@@H]32)cc1 [Example 1, 6-Methyl-imidazo[2,1-b]thiazole-5-carboxylic acid [(1S,3S,5S)-2-(2-methyl-5-p-tolyl-thiazole-4-carbonyl)-2-azabicyclo[3.3.0]octane-3-ylmethyl]-amide] | 40 | 17 | – | – |
| Cc1nc2sccn2c1C(=O)NC[C@@H]1C[C@@H]2CCC[C@@H]2N1C(=O)c1nc(C2CC2)sc1-c1cccc(C(F)(F)F)c1 [Example 7, 6-Methyl-imidazo[2,1-b]thiazole-5-carboxylic acid {(1S,3S,5S)-2-[2-cyclopropyl-5-(3-trifluoromethyl-phenyl)-thiazole-4-carbonyl]-2-azabicyclo[3.3.0]octane-3-ylmethyl}-amide] | 95 | 18 | – | – |
| Cc1nc(C(=O)N2[C@H](CNC(=O)c3noc4ccccc34)C[C@@H]3CCC[C@@H]32)c(-c2cccc(Cl)c2)s1 [Example 9, Benzo[d]isoxazole-3-carboxylic acid {(1S,3S,5S)-2-[5-(3-chloro-phenyl)-2-methyl-thiazole-4-carbonyl]-2-azabicyclo[3.3.0]octane-3-ylmethyl}-amide] | 283 | 275 | – | – |
| Cc1nc(C(=O)N2[C@H](CNC(=O)c3cccc4c3CCO4)C[C@@H]3CCC[C@@H]32)c(-c2cccc(C(F)(F)F)c2)s1 [Example 16, 2,3-Dihydro-benzofuran-4-carboxylic acid {(1S,3S,5S)-2-[2-methyl-5-(3-trifluoromethyl-phenyl)-thiazole-4-carbonyl]-2-azabicyclo[3.3.0]octane-3-ylmethyl}-amide] | – | – | 12 | 11 |
| Cc1nc(C(=O)N2[C@H](CNC(=O)c3cccc4c3CCO4)C[C@@H]3CCC[C@@H]32)c(-c2ccc(F)c(Br)c2)s1 [Example 19, 2,3-Dihydro-benzofuran-4-carboxylic acid {(1S,3S,5S)-2-[5-(3-bromo-4-fluoro-phenyl)-2-methyl-thiazole-4-carbonyl]-2-azabicyclo[3.3.0]octane-3-ylmethyl}-amide] | – | – | 32 | 37 |
| O=C(NC[C@@H]1C[C@@H]2CCC[C@@H]2N1C(=O)c1nc(C2CC2)sc1-c1ccccc1)c1cccc2c1CCO2 [Example 26, 2,3-Dihydro-benzofuran-4-carboxylic acid [(1S,3S,5S)-2-(2-cyclopropyl-5-phenyl-thiazole-4-carbonyl)-2-azabicyclo[3.3.0]octane-3-ylmethyl]-amide] | – | – | 41 | 48 |
